US12616688B2, “Cell glycocalyx protection effect of anisodamine” (priority 2020, dated 2026)

Key:
Assay type in all cases: cell-based, human
[1] = tested on: hCMEC/D3 cell; test: CCK-8 cell proliferation assay; settings: under 50 μg/mL LPS, 24 h
Protocol: Immortalized HBMVEC hCMEC/D3 was taken from the Beijing Beina Chuanglian Biotechnology Institute (BNBIO) in China. The hCMEC/D3 endothelial cell was cultivated with an endothelial cell culture medium (ECM; cat.1001, Sciencell, USA) at 37° C. and 5% CO2. Anisodamine hydrobromide was taken from the Chengdu First Pharmaceutical Co., Ltd., Chengdu, China. Anisodamine hydrobromide was dissolved in distilled water at 20 mg/mL, then a resulting solution was filtered through a 0.22 μm filter membrane, and anisodamine hydrobromide solutions with final concentrations of 10 μg/mL, 20 μg/mL, 40 μg/mL, and 80 μg/mL each were prepared with ECM. LPS was dissolved in distilled water at 2 mg/mL, and LPS solutions with concentrations of 1 μg/mL, 10 μg/mL, 20 μg/mL, 50 μg/mL, and 100 μg/mL each were prepared with ECM. The hCMEC/D3 cell was treated with LPS and anisodamine hydrobromide.
The cell proliferation was assayed by the CCK-8 method (C0042, Beyotime, China). 2,000 cells were inoculated into a 96-well plate, cultivated for 24 h, and then treated with LPS and anisodamine hydrobromide; and before the end of the experiment, a CCK8 assay solution was added, the plate was incubated for 1 h, and then the absorbance at 450 nm was determined by a microplate reader (Labsery K3 Touch, Thermo Fisher, USA).

[2] = tested on: glycocalyx HS and cadherin of hCMEC/D3 cell; test: Immunofluorescence staining and confocal microscopy of HS and cadherin
Protocol: 2.1 Experimental Groups: Normal Control Group, LPS Treatment Group (50 μg/mL), Low-Concentration Administration Group (LPS 50 μg/mL+Anisodamine Hydrobromide 10 μg/mL), and High-Concentration Administration Group (LPS 50 μg/mL+Anisodamine Hydrobromide 20 μg/mL). 2.2 Immunofluorescence Staining and Confocal Microscopy
A cell was fixed and penetrated, then blocked with 2% goat serum, and labeled with a murine HS monoclonal antibody (mAb) (1:100, 10E4 epitope, AMS Biotechnology, UK), a rabbit cadherin polyclonal antibody (pAb) (1:100, A0734, Abclonal, China), an Alexa Fluor 488 goat anti-murine (1:400, A11001, Thermo Fisher) secondary antibody, and an Alexa Fluor 568 donkey anti-rabbit (1:400, A10042, Thermo Fisher) secondary antibody. The cell nucleus was labeled with DAPI. Mounting was conducted, and then the cell was detected under a confocal microscope at LSM710.

[3] = tested on: hCMEC/D3 barrier; test: Endothelial permeability assay (Transwell, FITC-dextran leakage); settings: for LPS-induced permeability relative to control group: 24 h
Protocol: 3.1 Experimental Groups: Which were the Same as in Example 2.
A cell (5×10^4 in 200 μL ECM) was inoculated into an upper well of Transwell (0.4 μm, Corning, USA), and 200 μL of ECM was added to a lower well; the Transwell was incubated for 3 d in a 37° C. and 5% CO2 incubator until a cell confluency was 90%; a medium in the upper well was replaced with 50 μg/mL LPS or anisodamine hydrobromide (10 μg/mL or 20 μg/mL)-free fresh ECM, and a medium in the lower well was replaced with fresh ECM; 24 h later, 10 μL of fluorescein isothiocyanate (FITC)-dextran (40 kDa; Cat. 46944, Sigma-Aldrich, USA) was added to the upper well; 40 min later, 100 μL of a medium was taken from the lower well, and fluorescence values at 490 nm and 525 nm were determined; and a leakage amount of FITC-dextran was calculated to assess the permeability of an endothelial cell layer.

[4] = tested on: hCMEC/D3 cell; test: NO production assay
Protocol: 4.1 Experimental Groups: Which were the Same as in Example 2.
A cell was pre-cooled with PBS, then ultrasonically disrupted and homogenized, and centrifuged at 16,000 g and 4° C. for 20 min, a resulting supernatant was collected, and a NO detection kit (Nanjing Jiancheng Institute of Biological Engineering A012) was used to determine the absorbance at 550 nm, thereby determining an NO level.

[5] = LPS 50 μg/mL + anisodamine hydrobromide 10 μg/mL
[6] = LPS 50 μg/mL + anisodamine hydrobromide 20 μg/mL
[7] = LPS 50 μg/mL + anisodamine hydrobromide 10 or 20 μg/mL

Br.CN1[C@H]2C[C@H](OC(=O)[C@H](CO)c3ccccc3)C[C@@H]1[C@@H](O)C2 [anisodamine hydrobromide, Anisodamine hydrobromide]
cell proliferation ([1]; anisodamine hydrobromide 20 μg/mL): significantly increased the cell proliferation
cell proliferation ([1]; anisodamine hydrobromide 20 μg/mL, listed as anisodamine): significantly improve the proliferation
cell proliferation ([1]; anisodamine hydrobromide 80 μg/mL): significantly down-regulated the cell proliferation
cell proliferation ([1]; anisodamine hydrobromide 80 μg/mL, listed as anisodamine): significantly inhibit the proliferation
loss of cadherin and HS [2, 5]: inhibit the loss of cadherin and HS
loss of cadherin and HS [2, 6]: inhibit the loss of cadherin and HS
integrity and width of a cell junction [2, 7]: restored the integrity and width of a cell junction
cadherin level and HS coverage rate ([2]; compared with the control group and the 10 μg/mL anisodamine hydrobromide group (group not named, apparently 20 μg/mL)): increased slightly, but not significantly
LPS-induced permeability relative to control group [3, 5]: 2.7 times
LPS-induced permeability relative to control group [3, 6]: 2.6 times
permeability, anisodamine hydrobromide group vs control group [3, 7]: no significant difference
LPS-induced NO production relative to control group [4, 5]: 1.2 times
LPS-induced NO level ([4]; LPS 50 μg/mL + anisodamine hydrobromide 10 μg/mL (second mention)): significantly reduced the LPS-induced NO level
